Laboratory results taken from article PMC9735965, “Recovery of Gallium-68 and Zinc from HNO3-Based Solution by Liquid–Liquid Extraction with Arylamino Phosphonates” (Molecules, 2022).

experiment: Aqueous solubility of extractants by qNMR; type: physicochemical; conditions: water, thermodynamic from solid; experimentally determined; in D2O by qNMR
Experimental: A 1 mL volumetric flask was charged with 10–15 mg of the extractant and 1 mL of D2O. The resulting suspension was sonicated for 30 min and the content was centrifuged, filtered through a 0.45 µm syringe filter, and transferred into an NMR tube. A sealed capillary containing an external calibrant (acetanilide for ^1H qNMR and triphenylphosphine for ^31P qNMR) was inserted into the NMR tube and the solubility of extractants 1–9 was determined from their ^1H or ^31P NMR spectra using the formula: Cx = (Ix/Ical) × (Ncal/Nx) × Ccal, where I, N, and C are the integral area, number of nuclei, and the concentration of the extractant (x) and the calibrant (cal), respectively.

solubility at 30 min	Compound
220 µM	CCCCCCCCOP(=O)(O)C(Nc1ccccc1)c1ccccc1 (stereo not drawn) [Extractant 1, reference compound]
250 µM	CCCCCCCCOP(=O)(O)C(Nc1ccc(OC)cc1)c1cccs1 (stereo not drawn) [Extractant 3]
80 µM	CCCCCCCCOP(=O)(O)C(Nc1ccc(C(F)(F)F)cc1)c1ccc(C(C)(C)C)cc1 (stereo not drawn) [Extractant 4]
40 µM	CCCCCCCCOP(=O)(O)C(Nc1ccc(OC)cc1)c1ccc(C(F)(F)F)cc1 (stereo not drawn) [Extractant 5]
80 µM	CCCCCCCCOP(=O)(O)C(Nc1cc(C(F)(F)F)cc(C(F)(F)F)c1)c1ccc(C(C)(C)C)cc1 (stereo not drawn) [Extractant 7]
1600 µM	COCCOCCOP(=O)(O)C(Nc1cc(C(F)(F)F)cc(C(F)(F)F)c1)c1ccc(C(F)(F)F)cc1 (stereo not drawn) [Extractant 8]
1730 µM	COCCOCCOP(=O)(O)C(Nc1cc(C(F)(F)F)cc(C(F)(F)F)c1)c1cc(C(F)(F)F)cc(C(F)(F)F)c1 (stereo not drawn) [Extractant 9]

Compound	solubility at 30 min
COP(=O)(O)C(Nc1ccc(C(C)(C)C)cc1)c1ccc(C(C)(C)C)cc1 (stereo not drawn) [Extractant 2]	100 µM
COP(=O)(O)C(Nc1ccc(C(F)(F)F)cc1)c1cc(C(F)(F)F)cc(C(F)(F)F)c1 (stereo not drawn) [Extractant 6]	2600 µM
